For 25 molecules, inhibition and minimal effective concentration results are on record in patent US20230115208A1, “RING-FUSED THIAZOLINO 2-PYRIDONES, METHODS FOR PREPARATION THEREOF AND THEIR USE IN THE TREATMENT AND/OR PREVENTION OF TUBERCULOSIS” (QURETECH BIO AB, priority 2016, published 2023).

For the assay, the system named is Mycobacterium tuberculosis Erdman. Put plainly: Biofilm inhibition of Mycobacterium tuberculosis (ocular inspection). It is filed as cell-based. Particulars: for inhibition at 10 µM / inhibition at 25 µM / inhibition at 50 µM / inhibition at 100 µM: biofilm inhibition, average of three or more measurements (100/50/0% scoring); for inhibition at 10 µM: read-out: Average % Inhibition at 10 μM; for inhibition at 25 µM: read-out: Average % Inhibition at 25 μM; for minimal effective concentration: concentration at which full biofilm inhibition took place, replicate determinations in one cell.

On to `O=C(O)[C@@H]1CSc2c(C3CC3)c(Cc3cc4ccccc4s3)cc(=O)n21` [Example 2, (3R)-7-Cyclopropyl-4-oxo-6-{(7-thiabicyclo[4.3.0]nona-1,3,5,8-tetraen-8-yl)methyl}-1-thia-3a-aza-3-indancarboxylic acid], for which the inhibition at 10 µM stood at 63%, the inhibition at 25 µM is 100%, at 50 µM the inhibition was 75% and the minimal effective concentration was determined as 25 µM.
Turning to `O=C(O)[C@@H]1CSc2c(C3CC3)c(Cc3ccc(F)c4ccccc34)cc(=O)n21` [Example 3, (3R)-7-Cyclopropyl-6-[(4-fluoro-1-naphthyl)methyl]-4-oxo-1-thia-3a-aza-3-indancarboxylic acid], the inhibition at 10 µM is 100%, the inhibition at 25 µM amounted to 100%, the inhibition at 50 µM turned out to be 100% and the minimal effective concentration came out at 50 µM.
`Cc1ccc(Cc2cc(=O)n3c(c2C2CC2)SC[C@H]3C(=O)O)c2ccccc12` [Example 4, (3R)-7-Cyclopropyl-6-[(4-methyl-1-naphthyl)methyl]-4-oxo-1-thia-3a-aza-3-indancarboxylic acid]: the inhibition at 10 µM is 100%, the inhibition at 25 µM is 100%, at 50 µM the inhibition was 100% and the minimal effective concentration worked out at 25 µM.
For the molecule `O=C(O)[C@H]1CSc2c(C3CC3)c(Cc3cccc4ccccc34)cc(=O)n21` [Example 5, (3S)-7-Cyclopropyl-6-[(1-naphthyl)methyl]-4-oxo-1-thia-3a-aza-3-indancarboxylic acid], the inhibition at 10 µM was 100%, the inhibition at 25 µM came to 100%, the inhibition at 50 µM came to 100% and the minimal effective concentration came to 5 µM.
As to `O=C(O)c1c(-c2ccsc2)sc2c(C3CC3)c(Cc3cccc4ccccc34)cc(=O)n12` [Example 6, 5-Cyclopropyl-4-[(1-naphthyl)methyl]-2-oxo-8-(3-thienyl)-7-thia-1-azabicyclo[4.3.0]nona-3,5,8-triene-9-carboxylic acid], the inhibition at 10 µM was 50%, the inhibition at 25 µM is 88%, testing at 50 µM gave an inhibition of 100% and the inhibition at 100 µM amounted to 100%. The same molecule displayed a minimal effective concentration of 30 µM.
Turning to `O=C(O)[C@@H]1CSc2c(C3CC3)c(COc3cccc4ccccc34)cc(=O)n21` [Example 7, (3R)-7-Cyclopropyl-6-[(1-naphthyloxy)methyl]-4-oxo-1-thia-3a-aza-3-indancarboxylic acid], the inhibition at 10 µM is 50%, the inhibition at 25 µM was 100%, the inhibition at 50 µM was 100% and the minimal effective concentration stood at 25 µM.
On to `Cc1ccc(F)c(Cc2cc(=O)n3c(c2C2CC2)SC[C@H]3C(=O)O)c1` [Example 8, (3R)-7-Cyclopropyl-6-[(2-fluoro-5-methyl-phenyl)methyl]-4-oxo-1-thia-3a-aza-3-indancarboxylic acid], for which the inhibition at 10 µM stood at 75%, the inhibition at 25 µM worked out at 63%, 50 µM produced 75% inhibition and the minimal effective concentration came out at 25 µM.
For the molecule `Cc1cccc(Cc2cc(=O)n3c(c2C2CC2)SC[C@H]3C(=O)O)c1C` [Example 9, (3R)-7-Cyclopropyl-4-oxo-6-[(2,3-xylyl)methyl]-1-thia-3a-aza-3-indancarboxylic acid], the inhibition at 10 µM stood at 50%, the inhibition at 25 µM was 87%, testing at 50 µM gave an inhibition of 87% and the minimal effective concentration amounted to 25 µM.
Take `Cc1c(Cc2cccc3ccccc23)cc(=O)n2c1SC[C@H]2C(=O)O` [Example 10, (3R)-7-Methyl-6-[(1-naphthyl)methyl]-4-oxo-1-thia-3a-aza-3-indancarboxylic acid]: the inhibition at 10 µM turned out to be 69%, the inhibition at 25 µM was 100% and testing at 50 µM gave an inhibition of 100%.
For the molecule `CON(C)C(=O)[C@@H]1CSc2c(C3CC3)c(Cc3cccc4ccccc34)cc(=O)n21` [Example 11, (N-Methylmethoxyamino){(3R)-7-cyclopropyl-6-[(1-naphthyl)methyl]-4-oxo-1-thia-3a-aza-3-indanyl}formaldehyde], the inhibition at 10 µM came out at 75%, the inhibition at 25 µM is 38% and the inhibition at 50 µM amounted to 88%.
With `O=c1cc(Cc2cccc3ccccc23)c(C2CC2)c2n1[C@H](c1nnn[nH]1)CS2` [Example 12, (3R)-7-Cyclopropyl-6-[(1-naphthyl)methyl]-3-(1H-1,2,3,4-tetrazol-5-yl)-1-thia-3a-aza-4-indanone], the inhibition at 10 µM was found to be 12%, the inhibition at 25 µM is 50% and testing at 50 µM gave an inhibition of 87%.
Regarding `O=C(O)c1c(-c2ccccc2)sc2c(C3CC3)c(Cc3cccc4ccccc34)cc(=O)n12` [Example 13, 5-Cyclopropyl-4-[(1-naphthyl)methyl]-2-oxo-8-phenyl-7-thia-1-azabicyclo[4.3.0]nona-3,5,8-triene-9-carboxylic acid], the inhibition at 10 µM turned out to be 62%, the inhibition at 25 µM is 75%, 50 µM produced 100% inhibition and the minimal effective concentration is 50 µM.
As for `Cc1cccc(-c2sc3c(C4CC4)c(Cc4cccc5ccccc45)cc(=O)n3c2C(=O)O)c1` [Example 14, 5-Cyclopropyl-4-[(1-naphthyl)methyl]-2-oxo-8-(m-tolyl)-7-thia-1-azabicyclo[4.3.0]nona-3,5,8-triene-9-carboxylic acid], the inhibition at 10 µM was 0%, the inhibition at 25 µM came to 88% and at 50 µM the inhibition was 100%.
Take `O=C(O)[C@@H]1CSc2c(C3CC3)c(Cc3ccc4ccccc4c3)cc(=O)n21` [Example 15, (3R)-7-Cyclopropyl-6-[(2-naphthyl)methyl]-4-oxo-1-thia-3a-aza-3-indancarboxylic acid]: the inhibition at 10 µM is 87%, the inhibition at 25 µM came to 100%, the inhibition at 50 µM turned out to be 100% and the minimal effective concentration was found to be 50 µM.
As to `O=c1cc(Cc2cccc3ccccc23)c(C2CC2)c2n1[C@H](CO)CS2` [Example 16, (3R)-7-Cyclopropyl-3-(hydroxymethyl)-6-[(1-naphthyl)methyl]-1-thia-3a-aza-4-indanone], the inhibition at 10 µM is 25%, the inhibition at 25 µM was determined as 62% and the inhibition at 50 µM stood at 100%.
Consider `O=C(O)[C@@H]1CSc2c(-c3cccs3)c(Cc3cccc4ccccc34)cc(=O)n21` [Example 17, (3R)-6-[(1-Naphthyl)methyl]-4-oxo-7-(2-thienyl)-1-thia-3a-aza-3-indancarboxylic acid], for which the inhibition at 10 µM is 25%, the inhibition at 25 µM was determined as 38%, the inhibition at 50 µM stood at 100% and the minimal effective concentration was found to be 50 µM.
As for `O=C(O)c1c(-c2c[nH]nn2)sc2c(C3CC3)c(Cc3cccc4ccccc34)cc(=O)n12` [Example 18, 5-Cyclopropyl-4-[(1-naphthyl)methyl]-2-oxo-8-(1H-1,2,3-triazol-4-yl)-7-thia-1-azabicyclo[4.3.0]nona-3,5,8-triene-9-carboxylic acid], the inhibition at 10 µM was 12%, the inhibition at 25 µM is 12% and at 50 µM the inhibition was 38%.
Consider `O=C(O)c1c(Cc2ccccc2)sc2c(C3CC3)c(Cc3cccc4ccccc34)cc(=O)n12` [Example 19, 8-Benzyl-5-cyclopropyl-4-[(1-naphthyl)methyl]-2-oxo-7-thia-1-azabicyclo[4.3.0]nona-3,5,8-triene-9-carboxylic acid], for which the inhibition at 10 µM was determined as 0%, the inhibition at 25 µM was 0%, the inhibition at 50 µM was found to be 88% and the inhibition at 100 µM was 100%.
Regarding `O=C(O)[C@@H]1CSc2c(C3CC3)c(Cc3cccc(Cl)c3Cl)cc(=O)n21` [Example 20, (3R)-7-Cyclopropyl-6-[(2,3-dichlorophenyl)methyl]-4-oxo-1-thia-3a-aza-3-indancarboxylic acid], the inhibition at 10 µM amounted to 75%, the inhibition at 25 µM was 100%, the inhibition at 50 µM amounted to 100% and the minimal effective concentration was determined as 25 µM.
`NC(=O)[C@@H]1CSc2c(C3CC3)c(Cc3cccc4ccccc34)cc(=O)n21` [Example 21, (3R)-7-Cyclopropyl-6-[(1-naphthyl)methyl]-4-oxo-1-thia-3a-aza-3-indancarboxamide]: the inhibition at 10 µM is 12%, the inhibition at 25 µM stood at 100% and the inhibition at 50 µM was 100%.
In the case of `O=C(NS(=O)(=O)c1ccccc1)[C@@H]1CSc2c(C3CC3)c(Cc3cccc4ccccc34)cc(=O)n21` [Example 22, {(3R)-7-Cyclopropyl-6-[(1-naphthyl)methyl]-4-oxo-1-thia-3a-aza-3-indanyl}(phenylsulfonylamino)formaldehyde], the inhibition at 25 µM amounted to 38% and the inhibition at 50 µM turned out to be 25%.
With `CC(C)c1c(Cc2cccc3ccccc23)cc(=O)n2c1SC[C@H]2C(=O)O` [Example 23, (3R)-7-Isopropyl-6-[(1-naphthyl)methyl]-4-oxo-1-thia-3a-aza-3-indancarboxylic acid], the inhibition at 25 µM worked out at 12% and the inhibition at 50 µM stood at 50%.
For `Cc1cc(=O)n2c(c1C1CC1)SC[C@H]2C(=O)O` [Example 24, (3R)-7-Cyclopropyl-6-methyl-4-oxo-1-thia-3a-aza-3-indancarboxylic acid], the inhibition at 25 µM is 12% and the inhibition at 50 µM was found to be 62%.
For the molecule `O=C(O)[C@@H]1CSc2c(C3CC3)c(Cc3ccc(Cl)cc3)cc(=O)n21` [Example 25, (3R)-6-[(p-Chlorophenyl)methyl]-7-cyclopropyl-4-oxo-1-thia-3a-aza-3-indancarboxylic acid], the inhibition at 25 µM is 12% and testing at 50 µM gave an inhibition of 50%.
Turning to `CS(=O)(=O)NC(=O)[C@@H]1CSc2c(C3CC3)c(Cc3cccc4ccccc34)cc(=O)n21` [Example 26, {(3R)-7-Cyclopropyl-6-[(1-naphthyl)methyl]-4-oxo-1-thia-3a-aza-3-indanyl}(methylsulfonylamino)formaldehyde], the minimal effective concentration amounted to 50 µM.
